In this test the test system is BDF1 mice, B16 melanoma ip, median survival T/C. Briefly: NCI In Vivo Anticancer Drug Screen. Data for tumor model B16 Melanoma (intraperitoneal) in B6D2F1 (BDF1) mice. The conditions noted are these: endpoint: median survival time, higher = longer survival. The essentials: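 Mice with transplantable tumors; drug vs vehicle groups; endpoint survival or tumor size; value = T/C.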

Setting [1] is: dose: 100.0 mg/kg/injection, schedule: Q01DX009 (ip), vehicle: Klucel (hydroxypropylcellulose) (HPC).
[2] abbreviates: dose: 200.0 mg/kg/injection, schedule: Q01DX009 (ip), vehicle: Klucel (hydroxypropylcellulose) (HPC).
The mark [3] stands for this setting: dose: 12.5 mg/kg/injection, schedule: Q01DX009 (ip), vehicle: saline with Tween-80.
Setting [4] is: dose: 25.0 mg/kg/injection, schedule: Q01DX009 (ip), vehicle: saline with Tween-80.
The mark [5] stands for this setting: dose: 50.0 mg/kg/injection, schedule: Q01DX009 (ip), vehicle: saline with Tween-80.
The mark [6] stands for this setting: dose: 100.0 mg/kg/injection, schedule: Q01DX009 (ip), vehicle: saline with Tween-80.
Where [7] appears, read: dose: 200.0 mg/kg/injection, schedule: Q01DX009 (ip), vehicle: saline with Tween-80.
The mark [8] stands for this setting: dose: 2.5 mg/kg/injection, schedule: Q01DX009 (ip), vehicle: saline.
The mark [9] stands for this setting: dose: 5.0 mg/kg/injection, schedule: Q01DX009 (ip), vehicle: saline.
The mark [10] stands for this setting: dose: 10.0 mg/kg/injection, schedule: Q01DX009 (ip), vehicle: saline.
Where [11] appears, read: dose: 20.0 mg/kg/injection, schedule: Q01DX009 (ip), vehicle: saline.
[12] abbreviates: dose: 40.0 mg/kg/injection, schedule: Q01DX009 (ip), vehicle: saline.
Setting [13] is: dose: 3.12 mg/kg/injection, schedule: Q01DX009 (ip), vehicle: Klucel (hydroxypropylcellulose) (HPC).
[14] abbreviates: dose: 6.25 mg/kg/injection, schedule: Q01DX009 (ip), vehicle: Klucel (hydroxypropylcellulose) (HPC).
The mark [15] stands for this setting: dose: 12.5 mg/kg/injection, schedule: Q01DX009 (ip), vehicle: Klucel (hydroxypropylcellulose) (HPC).
Where [16] appears, read: dose: 12.5 mg/kg/injection, schedule: Q01DX009 (ip), vehicle: saline.
[17] abbreviates: dose: 25.0 mg/kg/injection, schedule: Q01DX009 (ip), vehicle: Klucel (hydroxypropylcellulose) (HPC).
The mark [18] stands for this setting: dose: 25.0 mg/kg/injection, schedule: Q01DX009 (ip), vehicle: saline.
Where [19] appears, read: dose: 50.0 mg/kg/injection, schedule: Q01DX009 (ip), vehicle: Klucel (hydroxypropylcellulose) (HPC).
The mark [20] stands for this setting: dose: 50.0 mg/kg/injection, schedule: Q01DX009 (ip), vehicle: saline.

Where “and” joins values, the source holds several entries; their conditions need not be identical. Identical values can stand only once. Toxic doses and inconclusive results are not listed.

On to `NC(=O)Oc1ccccc1`, for which the T/C runs as follows: under setting [1], 100 % of control; (dose: 100.0 mg/kg/injection, schedule: Q04DX003 (ip), vehicle: saline with Tween-80) 106 % of control; under setting [2], 100 % of control; (dose: 200.0 mg/kg/injection, schedule: Q04DX003 (ip), vehicle: saline with Tween-80) 113 % of control; (dose: 400.0 mg/kg/injection, schedule: Q04DX003 (ip), vehicle: saline with Tween-80) 110 % of control.
`CCC/C=C/C=C/C1CC(O)C(O)C(=O)C1CO` (stereo unspecified): the T/C is, setting by setting: under setting [3], 102 % of control; under setting [4], 104 % of control; under setting [5], 90 % of control; under setting [6], 95 % of control.
For the compound `CN=S(=O)(OCCCCCOS(=O)(=NC)c1ccc(C)cc1)c1ccc(C)cc1` (stereo unspecified), the T/C (dose: 6.25 mg/kg/injection, schedule: Q01DX009 (ip), vehicle: saline with Tween-80) was 101 % of control; the T/C under setting [3] was 103 % of control; the T/C under setting [4] was 99 % of control; the T/C under setting [5] is 102 % of control; the T/C under setting [6] is 101 % of control; the T/C under setting [7] was 106 % of control.
For the compound `CS(=O)(=O)OCCCNCCCOS(C)(=O)=O`, the T/C was 103 % of control (dose: 1.25 mg/kg/injection, schedule: Q01DX009 (ip), vehicle: saline); 110 % of control under setting [8]; 123 % of control under setting [9]; 159 % of control under setting [10]; 161 % of control and 175 % of control and 202 % of control under setting [11]; 189 % of control (dose: 30.0 mg/kg/injection, schedule: Q01DX009 (ip), vehicle: saline). The T/C under setting [12] is 201 % of control and 215 % of control and 271 % of control; the T/C (dose: 60.0 mg/kg/injection, schedule: Q01DX009 (ip), vehicle: saline) is 228 % of control.
In the case of `COc1cc([C@@H]2c3cc4c(c(O)c3C[C@H]3COC(=O)[C@@H]32)OCO4)cc(OC)c1OC`, the T/C runs as follows: (dose: 0.12 mg/kg/injection, schedule: Q01DX009 (ip), vehicle: suspension in saline) 100 % of control; (dose: 0.25 mg/kg/injection, schedule: Q01DX009 (ip), vehicle: suspension in saline) 102 % of control; (dose: 0.5 mg/kg/injection, schedule: Q01DX009 (ip), vehicle: saline) 109 % of control; (dose: 0.5 mg/kg/injection, schedule: Q01DX009 (ip), vehicle: suspension in saline) 120 % of control; (dose: 1.0 mg/kg/injection, schedule: Q01DX009 (ip), vehicle: saline) 114 % of control; (dose: 1.0 mg/kg/injection, schedule: Q01DX009 (ip), vehicle: suspension in saline) 121 % of control.
With `Cc1cc(OCc2nc(N)nc(N)c2-c2ccc(Cl)c(Cl)c2)ccc1NS(=O)(=O)c1cccc(S(=O)(=O)F)c1`, the T/C (dose: 117.0 mg/kg/injection, schedule: Q04DX003 (ip), vehicle: saline) is 122 % of control and the T/C (dose: 400.0 mg/kg/injection, schedule: Q04DX003 (ip), vehicle: saline) is 117 % of control.
Regarding `COc1ccc2nc3cc(Cl)ccc3c(NCCNCCNCCNc3c4ccc(Cl)cc4nc4ccc(OC)cc34)c2c1`, the T/C is 103 % of control under setting [13]; 107 % of control under setting [14]; 113 % of control under setting [15]; 164 % of control under setting [3]; 155 % of control under setting [16]; 113 % of control under setting [17]. In addition, the T/C by setting is: under setting [4], 160 % of control; under setting [18], 150 % of control; under setting [19], 113 % of control; under setting [5], 119 % of control; under setting [6], 90 % of control.
With `CCC(CC)(COC(N)=O)COC(N)=O`, the T/C (dose: 0.78 mg/kg/injection, schedule: Q01DX009 (ip), vehicle: Klucel (hydroxypropylcellulose) (HPC)) was 89 % of control; the T/C (dose: 1.56 mg/kg/injection, schedule: Q01DX009 (ip), vehicle: Klucel (hydroxypropylcellulose) (HPC)) is 93 % of control; the T/C under setting [13] was 95 % of control; the T/C under setting [14] was 97 % of control; the T/C under setting [15] is 86 % of control.
For the compound `CCCCCCCCCCCCNC(=O)Nc1ccc(CC)cc1`, the T/C under setting [1] is 92 % of control; the T/C under setting [2] was 100 % of control; the T/C (dose: 400.0 mg/kg/injection, schedule: Q01DX009 (ip), vehicle: Klucel (hydroxypropylcellulose) (HPC)) was 100 % of control.
On to `CC(C)(C)OC(=O)NCCCC(NC(=O)OCc1ccccc1)C(=O)O` (stereo unspecified), for which the T/C is, setting by setting: under setting [5], 101 % of control; under setting [6], 96 % of control; under setting [7], 96 % of control; (dose: 400.0 mg/kg/injection, schedule: Q01DX009 (ip), vehicle: saline with Tween-80) 86 % of control.
For the compound `O=C(NCCN1CC1)C(=O)NCCN1CC1`, the T/C is, setting by setting: (dose: 1.5 mg/kg/injection, schedule: Q01DX009 (ip), vehicle: saline with Tween-80) 153 % of control; (dose: 3.12 mg/kg/injection, schedule: Q04DX003 (ip), vehicle: saline with Tween-80) 178 % of control; (dose: 6.25 mg/kg/injection, schedule: Q04DX003 (ip), vehicle: saline with Tween-80) 168 % of control.
On to `S=C(Nc1ccccc1)Nc1ccccc1S`, for which the T/C is, setting by setting: under setting [1], 95 % of control and 107 % of control; under setting [2], 98 % of control and 111 % of control.
With `COc1cc(Cc2nccc3cc(OC)c(OC)cc23)c(C(C)=O)c(OC)c1`, the T/C was 101 % of control under setting [10]; 107 % of control under setting [11]; 107 % of control under setting [12]; 107 % of control (dose: 80.0 mg/kg/injection, schedule: Q01DX009 (ip), vehicle: saline).
Take `Nc1ccccc1.[C-]#[O+].[C-]#[O+].[C-]#[O+].[C-]#[O+].[C-]#[O+].[Cr]`: the T/C is 95 % of control under setting [8], 114 % of control under setting [9] and 108 % of control under setting [10].
`[Cl][Pt+2][Cl].[NH-]CC1(C[NH-])CCC1`: the T/C by setting is: (dose: 1.2 mg/kg/injection, schedule: Q01DX009 (ip), vehicle: carboxymethylcellulose (CMC)) 159 % of control; (dose: 2.4 mg/kg/injection, schedule: Q01DX009 (ip), vehicle: carboxymethylcellulose (CMC)) 168 % of control; (dose: 3.6 mg/kg/injection, schedule: Q01DX009 (ip), vehicle: carboxymethylcellulose (CMC)) 169 % of control.
For `CN1CCN(C(c2ccccc2)c2ccc(Cl)cc2)CC1` (stereo unspecified), the T/C is 105 % of control (dose: 3.12 mg/kg/injection, schedule: Q01DX009 (ip), vehicle: saline); 105 % of control (dose: 6.25 mg/kg/injection, schedule: Q01DX009 (ip), vehicle: saline); 102 % of control under setting [16]; 102 % of control under setting [18]; 100 % of control under setting [20].
For the compound `O=c1[nH]cc(F)c(=O)[nH]1.[Tl]`, the T/C was 95 % of control (dose: 1.25 mg/kg/injection, schedule: Q01DX009 (ip), vehicle: water); 100 % of control (dose: 2.5 mg/kg/injection, schedule: Q01DX009 (ip), vehicle: water); 102 % of control (dose: 5.0 mg/kg/injection, schedule: Q01DX009 (ip), vehicle: water); 113 % of control (dose: 10.0 mg/kg/injection, schedule: Q01DX009 (ip), vehicle: water).
With `Cc1ccc(S(=O)(=O)N/N=C/C(Br)=C(/Br)C(=O)O)cc1`, the T/C is 111 % of control under setting [15], 113 % of control under setting [17] and 122 % of control under setting [19].
In the case of `CN(C)C(=O)c1cccc(NC(=O)NCc2cccc(N3C(N)=NC(N)=NC3(C)C)c2)c1`, the T/C was 107 % of control under setting [16], 117 % of control under setting [18] and 102 % of control under setting [20].
Turning to `O=C(Nc1ccc(F)cc1)Nc1cccc2ccccc12`, the T/C reads like this: under setting [1], 97 % of control; under setting [2], 94 % of control.
